Experimental data from publication PMC3639963, “A New Class of Small Molecule Inhibitor of BMP Signaling” (PLoS ONE, 2013).

Tests used:
Test in all cases: DSF thermal shift
Type in all cases: binding
Details in all cases: 10 µM inhibitor; read-out: Tm shift
PTK7 = target: T1, PTK7 (Homo sapiens, UniProt Q13308)
T1 construct: purchased Nanosyn (enzymatic panel); SGC in-house recombinant human kinases (DSF panel); Invitrogen (ALK1-6)
T1 sequence (Q13308 31-1070): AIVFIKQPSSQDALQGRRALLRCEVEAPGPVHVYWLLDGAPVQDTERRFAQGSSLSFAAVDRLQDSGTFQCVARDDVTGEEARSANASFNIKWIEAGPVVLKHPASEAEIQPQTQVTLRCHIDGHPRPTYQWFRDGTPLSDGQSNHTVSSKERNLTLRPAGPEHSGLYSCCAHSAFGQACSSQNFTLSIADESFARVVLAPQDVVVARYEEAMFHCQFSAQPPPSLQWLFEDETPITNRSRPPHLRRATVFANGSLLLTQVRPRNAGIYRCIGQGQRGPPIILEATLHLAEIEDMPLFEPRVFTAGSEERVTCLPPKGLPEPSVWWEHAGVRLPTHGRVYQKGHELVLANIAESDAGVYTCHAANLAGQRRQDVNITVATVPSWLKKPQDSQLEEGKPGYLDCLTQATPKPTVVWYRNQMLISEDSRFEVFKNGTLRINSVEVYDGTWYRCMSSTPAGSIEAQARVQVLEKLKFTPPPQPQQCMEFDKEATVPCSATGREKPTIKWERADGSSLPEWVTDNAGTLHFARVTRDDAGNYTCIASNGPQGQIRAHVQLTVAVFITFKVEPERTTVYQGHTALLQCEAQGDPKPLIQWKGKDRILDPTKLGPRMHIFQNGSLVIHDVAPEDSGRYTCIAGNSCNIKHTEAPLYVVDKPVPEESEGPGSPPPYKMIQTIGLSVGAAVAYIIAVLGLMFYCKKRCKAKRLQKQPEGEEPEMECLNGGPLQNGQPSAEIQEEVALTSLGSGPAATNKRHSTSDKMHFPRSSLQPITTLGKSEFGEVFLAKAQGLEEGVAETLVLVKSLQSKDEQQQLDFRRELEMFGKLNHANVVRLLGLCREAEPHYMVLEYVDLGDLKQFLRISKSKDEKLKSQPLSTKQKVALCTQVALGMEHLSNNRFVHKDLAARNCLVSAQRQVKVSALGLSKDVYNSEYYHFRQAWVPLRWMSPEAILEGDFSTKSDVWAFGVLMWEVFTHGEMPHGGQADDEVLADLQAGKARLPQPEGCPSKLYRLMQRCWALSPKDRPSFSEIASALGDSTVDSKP
Description: (§1) Thermal melting experiments were performed using a Real Time PCR machine Mx3005p (Stratagene) with a protein concentration of 1–2 µM and 10 µM inhibitor as described previously, [25]. […] Recombinant human kinases for DSF screening were prepared by SGC using published methods, [36].

MPSK1 = target: T2, MPSK1 (Homo sapiens, UniProt O75716)
T2 construct: purchased Nanosyn (enzymatic panel); SGC in-house recombinant human kinases (DSF panel); Invitrogen (ALK1-6)
T2 sequence (O75716 whole entry): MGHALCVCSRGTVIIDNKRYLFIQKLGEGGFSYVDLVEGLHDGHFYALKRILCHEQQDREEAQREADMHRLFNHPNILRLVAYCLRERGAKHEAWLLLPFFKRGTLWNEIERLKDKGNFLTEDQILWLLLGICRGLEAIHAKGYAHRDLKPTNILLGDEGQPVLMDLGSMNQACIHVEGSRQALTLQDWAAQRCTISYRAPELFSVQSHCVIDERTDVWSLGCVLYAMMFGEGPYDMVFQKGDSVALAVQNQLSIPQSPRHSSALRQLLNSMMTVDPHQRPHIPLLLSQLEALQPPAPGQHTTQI
Description: as §1

MRCKβ = target: T3, MRCKβ (Homo sapiens, UniProt Q9Y5S2)
T3 construct: purchased Nanosyn (enzymatic panel); SGC in-house recombinant human kinases (DSF panel); Invitrogen (ALK1-6)
Description: as §1

LOK = target: T4, LOK (Homo sapiens, UniProt O94804)
T4 construct: purchased Nanosyn (enzymatic panel); SGC in-house recombinant human kinases (DSF panel); Invitrogen (ALK1-6)
Description: as §1

SLK = target: T5, SLK (Homo sapiens, UniProt Q9H2G2)
T5 construct: purchased Nanosyn (enzymatic panel); SGC in-house recombinant human kinases (DSF panel); Invitrogen (ALK1-6)
T5 sequence (Q9H2G2 whole entry): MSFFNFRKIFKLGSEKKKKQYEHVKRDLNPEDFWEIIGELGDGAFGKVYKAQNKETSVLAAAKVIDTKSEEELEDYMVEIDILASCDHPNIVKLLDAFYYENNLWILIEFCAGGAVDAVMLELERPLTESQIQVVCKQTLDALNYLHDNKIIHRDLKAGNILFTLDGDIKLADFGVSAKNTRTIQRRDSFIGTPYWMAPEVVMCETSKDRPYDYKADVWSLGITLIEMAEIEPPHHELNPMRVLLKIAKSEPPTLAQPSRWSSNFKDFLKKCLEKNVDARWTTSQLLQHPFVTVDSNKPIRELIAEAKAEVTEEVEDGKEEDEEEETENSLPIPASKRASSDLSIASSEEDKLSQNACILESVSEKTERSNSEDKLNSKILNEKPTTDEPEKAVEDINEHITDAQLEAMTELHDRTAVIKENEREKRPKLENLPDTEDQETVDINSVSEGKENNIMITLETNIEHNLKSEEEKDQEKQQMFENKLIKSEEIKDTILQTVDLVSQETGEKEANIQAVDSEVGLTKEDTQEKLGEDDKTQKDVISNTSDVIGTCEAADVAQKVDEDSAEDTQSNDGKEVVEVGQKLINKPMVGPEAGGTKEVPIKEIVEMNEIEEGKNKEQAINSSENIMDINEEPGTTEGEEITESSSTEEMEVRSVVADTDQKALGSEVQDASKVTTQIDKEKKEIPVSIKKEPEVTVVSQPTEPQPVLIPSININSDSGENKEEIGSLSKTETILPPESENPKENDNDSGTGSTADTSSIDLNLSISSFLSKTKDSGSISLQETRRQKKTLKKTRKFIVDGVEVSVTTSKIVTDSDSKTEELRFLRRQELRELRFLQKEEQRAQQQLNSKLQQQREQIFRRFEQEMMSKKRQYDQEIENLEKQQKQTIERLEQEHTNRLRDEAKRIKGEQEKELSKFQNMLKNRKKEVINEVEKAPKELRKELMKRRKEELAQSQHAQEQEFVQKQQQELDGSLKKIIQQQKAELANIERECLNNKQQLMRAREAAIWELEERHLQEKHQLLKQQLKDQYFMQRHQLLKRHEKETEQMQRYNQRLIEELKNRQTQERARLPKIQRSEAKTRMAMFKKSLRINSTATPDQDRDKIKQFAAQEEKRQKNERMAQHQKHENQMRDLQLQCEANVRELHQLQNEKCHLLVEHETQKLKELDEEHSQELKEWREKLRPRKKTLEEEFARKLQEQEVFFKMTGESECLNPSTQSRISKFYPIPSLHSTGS
Description: as §1

DRAK2 = target: T6, DRAK2 (Homo sapiens, UniProt O94768)
T6 construct: purchased Nanosyn (enzymatic panel); SGC in-house recombinant human kinases (DSF panel); Invitrogen (ALK1-6)
T6 sequence (O94768 1-372): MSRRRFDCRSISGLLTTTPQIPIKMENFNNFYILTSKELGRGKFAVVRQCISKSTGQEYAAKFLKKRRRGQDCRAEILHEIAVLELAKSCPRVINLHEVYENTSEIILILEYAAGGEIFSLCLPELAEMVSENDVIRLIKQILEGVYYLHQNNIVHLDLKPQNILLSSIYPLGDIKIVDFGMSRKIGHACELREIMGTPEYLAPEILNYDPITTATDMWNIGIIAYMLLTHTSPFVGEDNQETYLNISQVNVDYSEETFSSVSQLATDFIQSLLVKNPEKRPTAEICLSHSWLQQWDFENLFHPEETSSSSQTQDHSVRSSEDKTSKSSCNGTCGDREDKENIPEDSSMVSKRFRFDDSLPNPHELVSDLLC
Description: as §1

CLK3 = target: T7, CLK3 (Homo sapiens, UniProt P49761)
T7 construct: purchased Nanosyn (enzymatic panel); SGC in-house recombinant human kinases (DSF panel); Invitrogen (ALK1-6)
Description: as §1

AMPKα2 = target: T8, AMPKα2 (Homo sapiens, UniProt P54646)
T8 construct: purchased Nanosyn (enzymatic panel); SGC in-house recombinant human kinases (DSF panel); Invitrogen (ALK1-6)
T8 sequence (P54646 whole entry): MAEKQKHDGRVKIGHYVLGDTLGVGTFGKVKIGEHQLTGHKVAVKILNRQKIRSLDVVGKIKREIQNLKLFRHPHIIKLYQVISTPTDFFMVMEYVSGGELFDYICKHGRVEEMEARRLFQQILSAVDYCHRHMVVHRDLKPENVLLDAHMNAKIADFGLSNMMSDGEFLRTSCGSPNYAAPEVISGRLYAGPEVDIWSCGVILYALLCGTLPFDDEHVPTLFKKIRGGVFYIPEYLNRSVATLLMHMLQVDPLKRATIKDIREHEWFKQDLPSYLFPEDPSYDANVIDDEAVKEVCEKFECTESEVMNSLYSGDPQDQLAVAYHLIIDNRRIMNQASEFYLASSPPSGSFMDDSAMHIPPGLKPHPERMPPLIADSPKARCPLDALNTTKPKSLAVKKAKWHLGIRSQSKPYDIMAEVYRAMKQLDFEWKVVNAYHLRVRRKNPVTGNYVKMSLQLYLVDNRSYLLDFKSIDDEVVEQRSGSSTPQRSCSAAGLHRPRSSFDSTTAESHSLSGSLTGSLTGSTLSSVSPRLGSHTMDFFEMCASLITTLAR
Description: as §1

YANK1 = target: T9, YANK1 (Homo sapiens, UniProt Q8WU08)
T9 construct: purchased Nanosyn (enzymatic panel); SGC in-house recombinant human kinases (DSF panel); Invitrogen (ALK1-6)
Description: as §1

VRK2 = target: T10, VRK2 (Homo sapiens, UniProt Q86Y07)
T10 construct: purchased Nanosyn (enzymatic panel); SGC in-house recombinant human kinases (DSF panel); Invitrogen (ALK1-6)
Description: as §1

RSK1 = target: T11, RSK1 (Homo sapiens, UniProt Q15418)
T11 construct: purchased Nanosyn (enzymatic panel); SGC in-house recombinant human kinases (DSF panel); Invitrogen (ALK1-6)
Description: as §1

MEK2 = target: T12, MEK2 (Homo sapiens, UniProt P36507)
T12 construct: purchased Nanosyn (enzymatic panel); SGC in-house recombinant human kinases (DSF panel); Invitrogen (ALK1-6)
T12 sequence (P36507 whole entry): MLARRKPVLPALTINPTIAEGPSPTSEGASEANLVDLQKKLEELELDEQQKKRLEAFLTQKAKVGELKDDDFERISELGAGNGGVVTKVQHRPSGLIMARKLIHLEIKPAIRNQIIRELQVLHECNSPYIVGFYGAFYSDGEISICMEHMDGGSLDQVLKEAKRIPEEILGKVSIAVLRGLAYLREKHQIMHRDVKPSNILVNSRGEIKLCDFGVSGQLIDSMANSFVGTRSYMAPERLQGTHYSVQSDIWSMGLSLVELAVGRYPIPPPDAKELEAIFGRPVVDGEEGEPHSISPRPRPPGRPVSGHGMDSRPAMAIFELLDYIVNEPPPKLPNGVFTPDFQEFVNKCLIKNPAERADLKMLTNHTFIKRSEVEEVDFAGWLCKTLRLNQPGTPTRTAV
Description: as §1

CHEK2 = target: T13, CHEK2 (Homo sapiens, UniProt O96017)
T13 construct: purchased Nanosyn (enzymatic panel); SGC in-house recombinant human kinases (DSF panel); Invitrogen (ALK1-6)
Description: as §1

CLK2 = target: T14, CLK2 (Homo sapiens, UniProt P49760)
T14 construct: purchased Nanosyn (enzymatic panel); SGC in-house recombinant human kinases (DSF panel); Invitrogen (ALK1-6)
T14 sequence (P49760 whole entry): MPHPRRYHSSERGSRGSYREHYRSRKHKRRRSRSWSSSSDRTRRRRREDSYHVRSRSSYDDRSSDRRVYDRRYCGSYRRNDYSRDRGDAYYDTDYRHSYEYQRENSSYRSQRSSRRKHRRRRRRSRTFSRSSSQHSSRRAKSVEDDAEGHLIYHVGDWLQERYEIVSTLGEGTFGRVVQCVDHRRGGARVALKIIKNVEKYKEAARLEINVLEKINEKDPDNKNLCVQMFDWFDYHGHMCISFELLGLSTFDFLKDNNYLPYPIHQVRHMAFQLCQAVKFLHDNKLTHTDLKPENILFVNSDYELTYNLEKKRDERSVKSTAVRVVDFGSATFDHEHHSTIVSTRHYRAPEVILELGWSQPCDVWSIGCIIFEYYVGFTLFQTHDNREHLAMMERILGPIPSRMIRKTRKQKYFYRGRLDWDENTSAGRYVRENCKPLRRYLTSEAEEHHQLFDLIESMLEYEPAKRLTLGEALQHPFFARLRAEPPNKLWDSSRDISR
Description: as §1

PIM2 = target: T15, PIM2 (Homo sapiens, UniProt Q9P1W9)
T15 construct: purchased Nanosyn (enzymatic panel); SGC in-house recombinant human kinases (DSF panel); Invitrogen (ALK1-6)
T15 sequence (Q9P1W9 whole entry): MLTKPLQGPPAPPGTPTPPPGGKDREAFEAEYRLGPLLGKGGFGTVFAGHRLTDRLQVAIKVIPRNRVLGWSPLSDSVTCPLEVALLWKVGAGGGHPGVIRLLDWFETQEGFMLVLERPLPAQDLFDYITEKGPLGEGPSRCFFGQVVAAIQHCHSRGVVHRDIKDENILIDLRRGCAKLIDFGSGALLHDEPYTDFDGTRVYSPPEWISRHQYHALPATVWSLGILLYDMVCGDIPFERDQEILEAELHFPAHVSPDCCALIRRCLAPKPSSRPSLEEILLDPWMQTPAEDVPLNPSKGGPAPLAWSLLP
Description: as §1

CDK2 = target: T16, CDK2 (Homo sapiens, UniProt P24941)
T16 construct: purchased Nanosyn (enzymatic panel); SGC in-house recombinant human kinases (DSF panel); Invitrogen (ALK1-6)
Description: as §1

AMPKα1 = target: T17, AMPKα1 (Homo sapiens, UniProt Q13131)
T17 construct: purchased Nanosyn (enzymatic panel); SGC in-house recombinant human kinases (DSF panel); Invitrogen (ALK1-6)
T17 sequence (Q13131 whole entry): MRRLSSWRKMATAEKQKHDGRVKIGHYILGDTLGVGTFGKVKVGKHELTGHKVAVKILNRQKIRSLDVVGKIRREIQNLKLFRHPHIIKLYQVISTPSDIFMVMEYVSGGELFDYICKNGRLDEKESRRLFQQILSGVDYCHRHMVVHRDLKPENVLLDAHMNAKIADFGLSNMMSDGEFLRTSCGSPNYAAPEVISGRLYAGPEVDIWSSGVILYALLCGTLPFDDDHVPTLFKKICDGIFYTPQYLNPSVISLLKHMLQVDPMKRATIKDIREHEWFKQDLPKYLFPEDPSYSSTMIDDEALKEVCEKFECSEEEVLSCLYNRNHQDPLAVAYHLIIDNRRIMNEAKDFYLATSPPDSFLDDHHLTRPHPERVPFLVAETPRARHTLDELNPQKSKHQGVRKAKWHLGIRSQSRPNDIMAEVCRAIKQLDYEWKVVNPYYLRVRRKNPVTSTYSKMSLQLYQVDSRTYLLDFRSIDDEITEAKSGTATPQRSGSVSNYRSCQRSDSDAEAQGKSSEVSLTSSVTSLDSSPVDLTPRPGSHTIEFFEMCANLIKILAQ
T17 sequence (Q9Y478 whole entry partner): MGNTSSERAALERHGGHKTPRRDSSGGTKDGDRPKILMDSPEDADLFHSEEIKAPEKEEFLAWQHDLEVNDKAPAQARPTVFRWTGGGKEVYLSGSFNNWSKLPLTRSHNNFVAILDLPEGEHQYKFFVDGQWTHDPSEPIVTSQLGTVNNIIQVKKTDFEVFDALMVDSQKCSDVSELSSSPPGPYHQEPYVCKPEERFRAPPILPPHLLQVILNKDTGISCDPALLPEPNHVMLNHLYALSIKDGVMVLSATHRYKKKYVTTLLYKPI
T17 sequence (P54619 whole entry partner): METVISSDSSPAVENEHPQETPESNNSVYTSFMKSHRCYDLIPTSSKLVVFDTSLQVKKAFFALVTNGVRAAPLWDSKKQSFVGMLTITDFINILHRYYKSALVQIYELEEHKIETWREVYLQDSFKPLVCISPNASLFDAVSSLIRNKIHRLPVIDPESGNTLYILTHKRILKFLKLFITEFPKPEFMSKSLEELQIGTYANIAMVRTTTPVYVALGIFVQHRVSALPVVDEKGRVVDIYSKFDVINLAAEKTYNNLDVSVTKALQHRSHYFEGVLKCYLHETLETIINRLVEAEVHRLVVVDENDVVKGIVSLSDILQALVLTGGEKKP
Description: as §1

JNK1 = target: T18, JNK1 (Homo sapiens, UniProt P45983)
T18 construct: purchased Nanosyn (enzymatic panel); SGC in-house recombinant human kinases (DSF panel); Invitrogen (ALK1-6)
T18 sequence (P45983 whole entry): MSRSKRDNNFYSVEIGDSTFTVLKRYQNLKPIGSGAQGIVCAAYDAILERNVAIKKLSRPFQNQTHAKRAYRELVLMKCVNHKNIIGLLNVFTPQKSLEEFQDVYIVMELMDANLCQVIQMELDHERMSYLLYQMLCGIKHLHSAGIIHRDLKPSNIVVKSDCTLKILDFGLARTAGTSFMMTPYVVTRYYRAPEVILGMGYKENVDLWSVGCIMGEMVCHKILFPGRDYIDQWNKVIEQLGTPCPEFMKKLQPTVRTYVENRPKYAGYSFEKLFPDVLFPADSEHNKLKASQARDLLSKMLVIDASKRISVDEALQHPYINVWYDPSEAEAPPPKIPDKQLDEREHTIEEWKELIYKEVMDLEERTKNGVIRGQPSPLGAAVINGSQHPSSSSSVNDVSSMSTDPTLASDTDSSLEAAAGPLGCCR
Description: as §1

ΔTm at 10 µM (PTK7) [°C] | ΔTm at 10 µM (MPSK1) [°C] | ΔTm at 10 µM (MRCKβ) [°C] | ΔTm at 10 µM (LOK) [°C] | ΔTm at 10 µM (SLK) [°C] | ΔTm at 10 µM (DRAK2) [°C] | ΔTm at 10 µM (CLK3) [°C] | ΔTm at 10 µM (AMPKα2) [°C] | ΔTm at 10 µM (YANK1) [°C] | ΔTm at 10 µM (VRK2) [°C] | ΔTm at 10 µM (RSK1) [°C] | ΔTm at 10 µM (MEK2) [°C] | ΔTm at 10 µM (CHEK2) [°C] | ΔTm at 10 µM (CLK2) [°C] | ΔTm at 10 µM (PIM2) [°C] | ΔTm at 10 µM (CDK2) [°C] | ΔTm at 10 µM (AMPKα1) [°C] | ΔTm at 10 µM (JNK1) [°C] | Structure (SMILES)
-1.2 | 5.3 | 0 | 2.5 | 1.6 | 10 | 3.7 | 7.1 | 0.5 | 0.2 | 2.8 | -0.1 | 1.7 | 5 | 0.6 | 2.5 | 3.9 | 0 | c1cc(-c2cnn3cc(-c4ccc(OCCN5CCCCC5)cc4)cnc23)ccn1 [Dorsomorphin]
-1.3 | 0.3 | 0.4 | 2.1 | 1 | 0.6 | 0 | 1.2 | 0.2 | 0.6 | 1.1 | 2.4 | 0 | 0 | 0.1 | 0.1 | 0.2 | 0.2 | COc1cc(-c2cc(-c3cccc(O)c3)cnc2N)cc(OC)c1OC [K02288, 3-[6-amino-5-(3,4,5-trimethoxy-phenyl)-pyridin-3-yl]-phenol]

Structure (SMILES) | ΔTm at 10 µM (PTK7) [°C] | ΔTm at 10 µM (MPSK1) [°C] | ΔTm at 10 µM (MRCKβ) [°C] | ΔTm at 10 µM (LOK) [°C] | ΔTm at 10 µM (SLK) [°C] | ΔTm at 10 µM (DRAK2) [°C] | ΔTm at 10 µM (CLK3) [°C] | ΔTm at 10 µM (AMPKα2) [°C] | ΔTm at 10 µM (YANK1) [°C] | ΔTm at 10 µM (VRK2) [°C] | ΔTm at 10 µM (RSK1) [°C] | ΔTm at 10 µM (MEK2) [°C] | ΔTm at 10 µM (CHEK2) [°C] | ΔTm at 10 µM (CLK2) [°C] | ΔTm at 10 µM (PIM2) [°C] | ΔTm at 10 µM (CDK2) [°C] | ΔTm at 10 µM (AMPKα1) [°C] | ΔTm at 10 µM (JNK1) [°C]
c1ccc2c(-c3cnn4cc(-c5ccc(N6CCNCC6)cc5)cnc34)ccnc2c1 [LDN-193189] | -0.3 | 5.3 | 0.6 | 3.1 | 1.2 | 2.1 | 0.7 | 8.3 | 1.2 | -0.2 | 3.3 | 2.1 | 1.4 | 3.3 | -1.3 | 0.7 | 4.3 | 0.5
